Assay results reported in patent US7122518B2, “Method for preventing or reducing collateral phototoxic damage to neighboring tissues during photodynamic therapy of a target tissue” (New York University, priority 2002, dated 2006).
“Also recorded” adds a separate entry of the source. Where two headings read alike, the source gives them in different places.

Assays:
[1] = in vivo, iv; cited from earlier work
[2] = Biodistribution of hypericin in tissues of tumor-bearing mice (fluorescence); assay type: in vivo; conditions: BALB/c mice bearing breast adenocarcinoma tumors, preliminary (FIG. 5)
Procedure: The present inventor aimed to overcome this obstacle by using pharmacokinetic considerations. Hypericin is a lipophilic agent with an alpha half life of approximately 1–2 hours in the circulation. […] It is therefore possible to generate conditions in which hypericin has cleared from the circulation and concentrated in the tissues where it can be useful in protecting from collateral photodynamic damage.

[3] = Hypericin distribution among the layers of the retina after i.v. administration
Procedure: Rats were sacrificed at 15 min, 2 hrs, 6 hrs and 8 hrs after i.v. administration of hypericin, 2 mg/kg. The eyes were enucleated and frozen initially at −80° C. and subsequently in liquid nitrogen and several cryostat sections (5-μm width) sliced from each sample. To prevent hypericin extraction from the retinal tissues during staining the histological tissue distribution of hypericin among the different layers of the retina was initially examined under an Olympus phase contrast and fluorescence microscope, and the data photographed with a computer-linked digital camera (Multipixel Spectral Imaging System, Applied Spectral Imaging Inc., Israel. Hypericin was excited at 477 nm and its fluorescence recorded by documenting emission intensity at 602 nm. The photographed locations were marked and the sections then stained with Hematoxylin-eosin (H&E) for confirmation of retinal layer identity and compared to the corresponding fluorescence and light microscopy images.
Hypericin at a dose of 2 mg/kg was administered to the tail vein. At 15 minutes, 2, 4, 6 and 8 hrs the rats were anesthesized, the eyes enucleated and frozen sections prepared. The sections were then analyzed by Multipixel Spectral Imaging.

[4] = cited from earlier work
[5] = tested on: ARPE cells; experiment: Competitive quenching by hypericin versus DTHe in ARPE cells (Hemacolor viability); conditions: for cell viability: 1.73 J/cm^2, Hemacolor after 24 hrs (FIG. 7A)
Procedure: The cells were treated with the added dianthraquinone compounds for 3 hrs. and with added verteporfin for the last two hrs. The cells were then exposed to 1.73 J/cm^2 of light irradiation at >650 nm and cell viability monitored after 24 hrs. in culture.
(§1) For the Hemacolor assay the cells were fixed with methanol, stained with Hemacolor reagents (Merck, Darmstadt, Germany), the dye eluted and quantified in an ELISA reader at 650 nm. PDT efficacy was expressed as percentage of viable cells in treated wells relative to untreated controls, calculated as (OD650, treated/OD650, untreated)×100.
ARPE or EH endothelial hybridoma cells were seeded at 5×10^4 cells/well in 96 well flat bottom microplates. The cells were allowed to adhere overnight, after which time DTHe or hypericin were added to ARPE cells (FIG. 7A) or to endothelial hybridoma cells (FIG. 7B) at concentrations of 10 or 20 μg/ml and the cells incubated at 37° C. in complete darkness. After one hour incubation with hypericin, verteporfin at concentrations of 0.1, 0.25 and 0.5 μg/ml was added to the cultures, which were then incubated at 37° C. for two additional hours. The supernatants were removed, the cells washed with PBS and the cultures exposed to light irradiation at a dose of 1.73 J/cm^2 at 689 nm. The cultures were then incubated at 37° C. for an additional 24 hrs and cell viability was then determined via the hemacolor assay.

[6] = tested on: ARPE-19 cells; experiment: Protection of ARPE cells from verteporfin-induced phototoxicity (MTT viability); conditions: for viability at 20 µM: Homo sapiens, ARPE-19, light or radiation study
Procedure: ARPE or EH cells were plated in 96 well flat bottom microplates 2×10^4 cells/well. The cells were allowed to attach to the plate surface and hypericin was added to the cultures in complete darkness (ambient light kept below <0.03 mW/cm^2 to prevent hypericin-mediated phototoxicity) for time intervals ranging from 3–6 hrs. Verteporfin was then added and was present for the last two hours of the incubation period. At the end of incubation period, the growth medium containing hypericin and verteporfin was removed and replaced with phosphate buffered saline (PBS) and then photosensitized with red light using a fiber-optic non-coherent light delivery system (SeNet Ltd, Israel) in combination with K700 broadband interference filter with central wavelengths at 700 nm and half-height bandwidth of ±40 nm (Rolyn Optics, Covina, Calif.) to selectively excite verteporfin but not hypericin (excitable at 546 and 590 nm). […] The fluence rate (mW/cm^2) was measured with a Model IL 1400A radiometer/photometer (International Light Inc., Newburyport, Mass.).
Two methods have been used to monitor cell viability: the MTT assay which measures reduction of MTT to formasan by mitochondria of viable cells and by the Hemacolor assay, a calorimetric microtiter assay that quantifies the amount of dye that binds to viable adherent cells (Keisari, 1992). […] MTT was added to the cells following light irradiation and the plates were incubated for three hours and then analyzed in an ELISA reader at 560 nm. […]
In order to examine whether the red/ox properties of hypericin in the dark can impact on the phototoxic properties of verteporfin (VP), retinal pigmented epithelial cells (ARPE-19) in monolayer cultures were loaded with hypericin by exposure to 5, 10 and 20 μM of this compound for three and six hrs. […] Following irradiation, drug-free fresh medium was introduced, the cells incubated at 37° C. in a 5% CO2 incubator for additional 24 hrs and cell viability then monitored using the MTT assay.

[7] = tested on: EH endothelial cells; experiment: Protection of EH endothelial cells from verteporfin-induced phototoxicity (viability); conditions: for viability at 20 µM: Homo sapiens, Endothelial cell, light or radiation study
Procedure: ARPE or EH cells were plated in 96 well flat bottom microplates 2×10^4 cells/well. The cells were allowed to attach to the plate surface and hypericin was added to the cultures in complete darkness (ambient light kept below <0.03 mW/cm^2 to prevent hypericin-mediated phototoxicity) for time intervals ranging from 3–6 hrs. Verteporfin was then added and was present for the last two hours of the incubation period. At the end of incubation period, the growth medium containing hypericin and verteporfin was removed and replaced with phosphate buffered saline (PBS) and then photosensitized with red light using a fiber-optic non-coherent light delivery system (SeNet Ltd, Israel) in combination with K700 broadband interference filter with central wavelengths at 700 nm and half-height bandwidth of ±40 nm (Rolyn Optics, Covina, Calif.) to selectively excite verteporfin but not hypericin (excitable at 546 and 590 nm). The cultures were then returned to standard growth medium, cultured for 24 hrs in a 37° C., 5% CO2 and cell viability then assayed by the MTT or Hemacolor assays. The fluence rate (mW/cm^2) was measured with a Model IL 1400A radiometer/photometer (International Light Inc., Newburyport, Mass.).
Two methods have been used to monitor cell viability: the MTT assay which measures reduction of MTT to formasan by mitochondria of viable cells and by the Hemacolor assay, a calorimetric microtiter assay that quantifies the amount of dye that binds to viable adherent cells (Keisari, 1992). The cells were plated in flat-bottomed 96 well plates in 200 μl medium containing the photosensitizer. MTT was added to the cells following light irradiation and the plates were incubated for three hours and then analyzed in an ELISA reader at 560 nm. Corrections were made for non-specific absorption of MTT subtracting background values generated in cell free blank wells containing medium and HY at each dose level and MTT.
as §1
EH cells were used for this purpose.

[8] = verteporfin 0.25 μg/ml plus quencher 10 μg/ml
[9] = verteporfin 0.25 μg/ml plus quencher 20 μg/ml

In the case of verteporfin, the “time remaining in the intravascular compartment” value [1] is listed as 30 min.

For `Cc1cc(O)c2c(=O)c3c(O)cc(O)c4c5c(O)cc(O)c6c(=O)c7c(O)cc(C)c8c1c2c(c34)c(c78)c65` [hypericin], the tissue biodistribution [2] was “sequester in various tissues for many hours”, the “retinal distribution of hypericin fluorescence” value (from here on “retinal distribution”) ([3]; 15 minutes after 2 mg/kg i.v., rats (FIG. 6A)) was “confined to the choroidal blood vessels; also recorded: confined mainly to the vasculature” and the “retinal distribution” value ([3]; 2 hrs after 2 mg/kg i.v., rats (FIG. 6B)) was “spreads to the entire retina; also recorded: extravasated to the surrounding tissue was less evident within the vasculature and spread through the choroid”. The “retinal distribution” value ([3]; 6 hrs after 2 mg/kg i.v., rats (FIG. 6C)) was “present only in the retina and not in the blood vessels; also recorded: spread to the entire retina”, the “confinement to the choroidal vasculature” value ([3]; after i.v. administration to rats (discussion)) was “mainly confined to the choroidal vasculature for up to one hour” and the “bioavailability to the retina” value ([3]; hypericin 2 mg/kg i.v. tail vein, rats) was “bioavailable to the retina”. The “clearance from choroidal vessels and tissue accumulation” value ([3]; rat, in vivo, iv) was “beyond 2 hrs was cleared from the choroidal vessels and accumulated in the extravascular choroid and RPE”, the “alpha half-life in the circulation” value ([4]; circulation) was 1 to 2 h and the elimination half-life ([4]; human, in vivo) was about 48 h. The “gamma elimination half life from tissues” value ([4]; in vivo) was “approximately 48 hrs”, the cell viability [5, 8] was 35% and the cell viability [5, 9] was 32%. For the same molecule, the viability at 20 µM ([6]; read-out: percent cell viability, verteporfin 0.25 μg/ml plus hypericin 20 μM, 0.75 J/cm^2 >650 nm (FIG. 2A)) was 60%, the viability at 20 µM ([6]; read-out: percent cell viability, verteporfin 0.5 μg/ml plus hypericin 20 μM, 0.75 J/cm^2 >650 nm (FIG. 2A)) was 25% and the cell viability preserved ([6]; verteporfin 2 μg/ml, hypericin loaded before photosensitization, RPE or endothelial cells, cell line not specified) was “up to 46.8%”. For the same molecule, the viability at 20 µM ([7]; read-out: EH cell viability, verteporfin 0.1 μg/ml plus hypericin 20 μM, 0.96 J/cm^2 (FIG. 3A)) was 73%, the viability at 20 µM ([7]; read-out: EH cell viability, verteporfin 0.25 μg/ml plus hypericin 20 μM, 0.96 J/cm^2 (FIG. 3A)) was 81% and the viability at 20 µM ([7]; read-out: EH cell viability, verteporfin 0.5 μg/ml plus hypericin 20 μM, 0.96 J/cm^2 (FIG. 3A)) was 49%. For the same molecule, the “EH cell protection from verteporfin-induced phototoxicity” value ([7]; higher doses of light irradiation, 1.73 J/cm^2 (FIG. 3B)) was “also maintained at higher doses of light irradiation, yet the absolute levels of protection declined”.

For `Cc1ccc2c(=O)c3c(O)cc(O)c4c5c(O)cc(O)c6c(=O)c7ccc(C)cc7c(c65)c(c2c1)c34` [DTHe, dimethyl tetrahydroxy helianthrone], the “competitive quenching of verteporfin-mediated phototoxicity relative to hypericin” value ([5]; ARPE cells, 10 and 20 μg/ml) was “much less effective”, the cell viability [5, 8] was 7.5% and the cell viability [5, 9] was 6%.
